Laboratory results published in PMC3017052, “A Novel Peptide Derived from Human Apolipoprotein E Is an Inhibitor of Tumor Growth and Ocular Angiogenesis” (PLoS ONE, 2011).

Columns and labels:
[1] = system: VEGF-induced phosphorylation of Flk1, c-Src, Akt, eNOS, FAK, Erk1/2 in HUVECs; assay: Western blot of VEGF-induced phosphorylation of angiogenic signaling molecules; format: cell-based, human; conditions: HUVEC, apoEdp 6–50 µM pre-treated 1 hr, VEGF 10 ng/mL 10 min, n = 5
Description: Figure 7 Inhibition by apoEdp of VEGF-induced Flk-1. HUVECs were pre-treated with apoEdp at the indicated concentrations for 1 hr; VEGF (10 ng/mL) added and incubated at 37°C for 10 min, to measure the phosphorylation of Flk-1(7-A), c-Src(7-B), Akt(7-C), eNOS(7-D), FAK(7-E), and Erk1/2(7-F). Equal loading of total proteins was also measured as described in Materials and Methods. Values were normalized by arbitrarily setting the densitometry of control cell signals 1.0 (mean ± SEM, n = 5). The asterisks indicate significant differences compared with VEGF stimulation (*p<0.05, **p<0.01 and ***p<0.001).
Confluent HUVECs were grown in EBM-2 supplemented with 1% FBS for 24 hr and the medium was replaced with fresh low serum (1% FBS) media in the presence or absence of varying concentrations of apoEdp (6–50 µM). After 1 hr, VEGF was added to a concentration of 10 ng/mL and incubated for 10 min so that the phosphorylated forms of angiogenic signaling molecules could be detected. The cells were then lysed, quantified for protein concentration, and separated on 4–20% pre-cast SDS–PAGE gels. Western blots of control and treated lysates were performed with antibodies against the phospho form of Flk-1, c-Src, FAK, ERK1/2, Akt, and eNOS. […] All primary and secondary antibodies were obtained from Santa Cruz Biotechnology (Santa Cruz, CA).

MDA-MB-231 cells = format: cell-based, human; conditions: 48 h
Description: To confirm that apoEdp affects cell survival, cell viability was determined using the cell titer 96®AQuous One solution cell proliferation kit. ApoEdp treatment of HUVECs induced a dose-dependent inhibition of cell viability (Fig. 1A). […] To determine whether apoEdp suppresses tumor growth by directly affecting tumor cells, we performed a cell viability assay using human breast cancer MDA-MB-231 cell line in vitro and cell titer 96®AQuous One solution cell proliferation kit.
Figure 1 ApoEdp affects HUVEC survival but not MDA-MB-231. A. HUVEC: ApoEdp has a significant effect on VEGF-induced HUVEC viability. Cells were treated with apoEdp at the indicated concentrations and incubated with constant 50 ng/mL VEGF for 48 hr. All values were normalized to cell control of no VEGF and no apoEdp. Cell viability values (mean ± SEM) are expressed as % of the value of the VEGF control. B. MDA-MB-231: ApoEdp has no effect on MDA-MB-231viability. ApoEdp has no significant effect on MDA-MB-231 survival. […] Cell viability values (mean ± SEM) are expressed as % of the value of the control (untreated cells). […]
Cell survival studies were carried out using the CellTiter96 AQueous One solution cell survival assay. […] The cells were incubated for 48 hr and then the AQueous One solution was added to the samples and measured at 490 nm.

[2] = system: VEGF-induced corneal angiogenesis; assay: Rabbit corneal micropocket assay (VEGF-induced angiogenesis); format: in vivo; conditions: 160 ng VEGF pellet, topical 1% eye drops 50 µL 5 times per day for 5 days, compared to saline treated eyes
Description: To study the in vivo anti-angiogenic effect of apoEdp, we assessed its inhibitory effect on VEGF-induced corneal micro-pocket assay in rabbit eye model. The slow release micropellet (500 µm×500 µm) of 0.4 g of Compritol 888 ATO (Gattefosse) combined with 0.1 g of Squalane oil (Sigma) and 20 mg/mL L-α-phosphatidylcholine containing saline or 160 ng of VEGF were surgically implanted in the corneal micropocket created in the avascular area of rabbit cornea (Fig. 5A–B).
Figure 5 ApoEdp inhibits angiogenesis in rabbit corneal micropocket assay. Slow-releasing micro pellets (500 µm×500 µm) containing 160 ng of VEGF were corneally implanted in New Zealand white rabbits (1.5–2.5 kg). […] (A)The area of neovascular response, vessel length, and clock hours of new blood vessel of rabbits in each group were calculated according to the formula Area (mm^2) = C/12×3.1416 [r^2−(r−L)^ 2] where C = the number of clock hours at the limbus involved in the neovascular response, L = length of the longest neovascular pedicle from the limbus onto anterior cornea, and r = radius of the cornea. […]
Corneal micropockets were created with a modified von Graefe cataract knife in eyes of each […] NZ white rabbit. […] The area of neovascular response, vessel length, and clock hours of new blood vessels of the rabbits in each group were calculated according to the formula [55]. […]

Ac-LRKLRKRLLLRKLRKRLL-NH2 [apoEdp]
VEGF-induced phosphorylation of Flk1, c-Src, Akt, eNOS, FAK and Erk1/2 [1]: significantly inhibited | 50% cytotoxic dose (CC50), MDA-MB-231 viability (MDA-MB-231 cells): > 300 µM | VEGF-induced angiogenesis in rabbit corneal micropocket [2]: significantly inhibited VEGF-induced angiogenesis
